Experimental data as given in patent US10233201B2, “Class of HDAC inhibitors expands the renal progenitor cells population and improves the rate of recovery from acute kidney injury” (University of Pittsburgh—Of the Commonwealth System of …, priority 2012, dated 2019).

Legend:
[1] = system: lhx1a, pax2a, pax8, ntla transcripts; assay: Relative qPCR in the trunk region of 10-somite embryos; assay type: in vivo, zebrafish; conditions: 3 μM
Text: Conducted as described in WO 2012109527 and in priority U.S. provisional Patent Application No. 61/720,621.

cyp26a1, cmlc2 = assay: In situ hybridization for RA-responsive genes in 18-somite embryos; assay type: in vivo, zebrafish; conditions: 3 μM
Method: In situ hybridization and immunocytochemistry: In situ hybridization was performed as previously described with some modifications. 142 Hybridization temperature was 65° C. Embryos were blocked in 2% blocking reagent (Roche) with 5% sheep serum in MAB (100 mM maleic acid and 150 mM NaCl [pH 7.5]). Whole-mount immunocytochemistry with 1:25 mouse anti-α6F antibody (Developmental Studies Hybridoma Bank) and 1:100 Cy3 secondary antibody (Jackson ImmunoResearch) was performed as described previously. 108 Embryos were embedded in JB-4 for sectioning per the manufacturer's instructions (Polysciences), sectioned at 5 μm, and mounted with Cytoseal 60 (Richard-Allan Scientific).
HDACis are believed to lower the threshold of RA necessary to activate transcription. If PTBA treatment facilitates activation of the RA pathway, then expression of genes responsive to RA signaling should change. […] In a previous study, cmlc2 expression was assessed for RAdependent effects in 18-somite embryos (Keegan, B. R., Feldman, J. L., Begemann, G., Ingham, P. W. & Yelon, D. Retinoic acid signaling restricts the cardiac progenitor pool. Science 307, 247-249, (2005)), therefore embryos were collected at the 18-somite stage for continuity. […]

[2] = system: proximal convoluted tubule cells; assay: Gentamycin-induced AKI in zebrafish larvae: renal cell proliferation (EdU); assay type: in vivo; conditions: 4 μM added 2 days post injection of gentamicin; larvae at 5 days post injection
Method: FIG. 42A is a graph showing the results of an AKI model using gentamycin-induced injury. AKI is generated as per a recent publication, Cianciolo Cosenitino, C., et al. ((2010) Intravenous microinjections of zebrafish larvae to study acute kidney injury. JoVE August 4 (42), pii: 2079. doi: 10.3791/2079). Four micromolar m4PTB (UPHD-00025) was added to the zebrafish E3 media in 0.5% DMSO at 2 days post injection of gentamicin and the larvae are scored daily for four days (6 days post injection) as alive or dead, with the final data tallied on day 6 post injection FIG. 42B.
Proliferation of renal cells was examined post AKI for m4PTB in zebrafish larvae (FIG. 43). AKI is generated as above with gentamycin, essentially as described in Example 11. Four μM m4PTB was added 2 days post injection of gentamicin. Zebrafish larvae at 5 days post injection were treated for 1 hour with the thymidine analogue EdU (10 milimolar), which incorporates into dividing (proliferating cells) while the larvae are in the zebrafish E3 media. The larvae where then fixed and processed for histology to count the number of proliferating cells in the proximal convulted tubule (as marked by the antibody 3G8). The number of proliferating cells was divided by the total number of cells in the proximal convoluted tubule to generate the percent of proliferation also known as the proliferation index as shown in FIG. 43.

[3] = system: BALB/c mice, severe IR-AKI; assay: Severe ischemia-reperfusion AKI (IR-AKI); assay type: in vivo, mouse; conditions: 7 days at 50 mg/ml starting 24 hrs after severe IR
Method: Surgeries were performed on a water-bath heated platform at 38° C. on 10-12 week old male BALB/c mice. For moderate IR-AKI, mice underwent a right nephrectomy followed by left renal pedicle clamping (800 μm pressure clamp, FST 18052-03). The clamp was released after 26 minutes, and tissue reperfusion was confirmed before completing the surgery. Mice were treated daily with indicated doses of compounds or equivalent volume of 20% 2-hydroxypropyl-β-cyclodextrin in water as vehicle control starting 24 h after injury. Since initial injury with this model is variable, mice were randomly allocated vehicle or m4PTB treatment if their serum creatinine levels were 0.8 to 1.2 mg/dl 24 h post IR injury. Other mice were excluded from further analysis and euthanized. To induce severe IR-AKI, mice underwent left renal pedicle clamping for 30 minutes and delayed contralateral nephrectomy was performed after 8 days.
For mouse studies, kidney sections were stained using Periodic Acid-Schiff (PAS) to assess renal tubular injury. Tubular injury (casts, dilated tubules, epithelial cell blebbing, and vacuolization, loss of brush borders or nuclei) was scored as described. Sirius red staining was performed using an established protocol used to evaluate renal fibrosis/collagen accumulation in kidney sections. To quantify Sirius red staining we used an Olympus BX-41 microscope equipped with an Olympus DP-72 digital camera system and polarizing light filter. Results are expressed as the mean percent fibrosis for all of the images per slide region (Sirius red positive/total surface area).
We used of 2-hydroxypropyl-β-cyclodextrin (CD, Sigma), a low toxicity drug formulation vehicle that has been well characterized and used extensively as a hydrophobic drug delivery vehicle. We could achieve concentrations of up to ˜12 mg/ml of PTBA analogues in 20% CD in water (100 mg/kg in volumes of ˜150-250 μl), and daily IP injections with 200 μl 20% CD in water had no effect on renal functional recovery following IR-AKI. Therefore all studies were performed using compounds dissolved in 20% CD. To assess dosing and biological activity of PTBA analogues in mice, CD1 mice were injected with varying doses of compounds IP and kidneys isolated at different time point for histone extraction and analysis of histone H4 acetylation, a marker of HDAC inhibitor activity, as outlined below. Based on results of these studies, mice were treated daily with 1, 10, 50 or 100 mg/kg of compound or equivalent volume of 20% CD vehicle control starting 24 h after injury.
˜30 μl blood was obtained by tail vein bleed at different time points, and serum samples frozen after confirming that they had not undergone hemolysis (which interferes with enzymatic analysis for serum creatinine). Serum creatinine was evaluated in duplicate samples using a commercially available enzymatic cascade assay (Pointe Scientific, requires only ˜7 μl of serum). […] Blood Urea Nitrogen (BUN) was determined in duplicate samples using a colorimetric enzymatic assay kit (Infinity Urea, Thermo Scientific), and spot urinary albumin/creatinine ratios determined using a mouse albumin ELISA and urinary creatinine assay kit (Albuwell and Creatinine Companion, Exocell).
Compounds 22, 25, 29, 36, and 186 were injected for 7 days at […] starting 24 hrs after severe IR treatment. […] Fibrotic (scar) tissue was measured using Sirus Red after 28 days for various markers of fibrosis.

Row | SMILES | increase in ntla expression (qPCR) [1] | increase in pax8 expression (qPCR) [1] | lhx1a relative transcript (qPCR) [1] | pax2a expression (qPCR) [1] | embryos with decreased cmlc2 expression (cyp26a1, cmlc2) | embryos with increased cyp26a1 expression (cyp26a1, cmlc2) | renal cell proliferation (proliferation index) [2] | fibrosis after 28 days (Sirus Red, markers of fibrosis) [3] | serum creatinine at day 9 [3]
1 | O=C(O)CCCSc1ccccc1 [PTBA, 4-(phenylthio)butanoic acid] | 80% | 50% | three-fold increase | almost two-fold increase | 100% | 100% |  |  | 
2 | COC(=O)CCCSc1ccccc1 [UPHD-00025, methyl 4-(phenylsulfanyl) butanoate] |  |  |  |  |  |  | significantly increased | most reduction in fibrosis | better activity
